Assay results from a melting point compilation (Tetko et al.; mined from patent text by program, amines drawn as free bases though some values may be those of a salt).

Row | melting point [°C] | Structure (SMILES)
1 | 162 to 164 | Cc1ccc(S(=O)(=O)OCCCOc2ccc([N+](=O)[O-])c(CS(=O)(=O)c3cccc4ccccc34)c2)cc1
2 | 157 to 158 | COc1cc(CNc2nc(NCCc3ccccn3)nc3ncccc23)cc(OC)c1
3 | 104 to 107 | N#CC1CCN(C(=O)c2ccc3nonc3c2)CC1
4 | 169 to 172 | COc1ccccc1Oc1c(NS(=O)(=O)c2ccc(C(C)(C)C)cc2)nc(-c2ncccn2)nc1OCCOc1ccc(C(C)=O)cc1
5 | 118 to 120 | Nc1nccnc1C(=O)NCCCn1ccnc1
6 | 58 to 60 | COc1ccc(Sc2sccc2C=O)cc1
7 | > 220 | Clc1ccc2c(n1)[nH]c1ccc(Br)cc12
8 | 79 to 81 | COc1ccc2nc(Cl)c(OC)nc2c1
9 | 209 | COc1cccn2c(=O)c(CCN3CCC(c4noc5cc(F)ccc45)CC3)c(C)nc12
10 | 123 to 125 | O=C1c2ccccc2C(=O)N1CC1CC1c1cccc2nnsc12 (stereo not drawn)
11 | 94 to 96 | CCOCCOc1cccc2oc(-c3ccccc3)cc(=O)c12
12 | 51.5 to 53 | CCOC(=O)c1c(C(F)(F)F)nc(C(F)(F)Cl)c(C(=O)OC)c1NC(C)(C)C
13 | 148 | Cc1ccc(-c2cc(NCCNc3cc(-c4cccs4)[nH]n3)n[nH]2)cc1
14 | 136 to 137 | O=[N+]([O-])c1ccc(CP2(=O)OCCCCO2)cc1
15 | 171 to 172 | O=C1CC(NCCCOc2cccc(CN3CCCCC3)c2)=Nc2ccccc21
16 | 226 to 228 | Cc1cnc(C(=O)c2[nH]c3cc(Cl)ccc3c2CC(=O)O)cc1C
17 | 178 to 179 | Cc1ccc(C(N)=O)cc1Br
18 | 167 to 168 | COc1ccc(CCNC(=O)c2nc(N)sc2-c2ccncc2)cc1OC
19 | 136 to 137 | CC1(C)OC[C@@H](CNc2c([N+](=O)[O-])cnc3cc(Br)ccc23)O1
20 | 90 to 91 | CCCCCCCCCCCCCCCCCCC(COC(C)=O)(COC(C)=O)NC(C)=O
21 | 182 to 183 | O=C(O)Cc1ccc(CCNC(=O)c2ccc(Cl)cc2)cc1
22 | 170 | CC1(C)CC(S(=O)(=O)Cc2cc3c(cc2Cl)OCO3)=NO1
23 | 310 | Cc1cc2c(cc1Cl)[nH]c1c(C(=O)O)cccc12

Row | melting point [°C] | Structure (SMILES)
24 | 132 to 134 | CSC(Oc1cc2cc(Br)cnc2cc1C)C(=O)NC(C)(C)C (stereo not drawn)
25 | 111 to 113 | CC(Oc1ncn(-c2cccc(Br)c2)n1)C(=O)N1CCCC1 (stereo not drawn)
26 | 104 to 105 | COc1ccc(C2=C(C=O)CCc3cc(OC)ccc32)cc1
27 | 175 to 176 | CC(=O)Nc1cc2c(cc1C#N)[C@@H](N1CCCC1)[C@H](O)C(C)(C)O2 (relative stereo)
28 | 98 to 104 | CCC12CCC3C4=C(CCC3C1CCC2O)CC(OC)=CC4 (stereo not drawn)
29 | 71 to 72 | CCCC(Cl)C(=O)c1ccccc1 (stereo not drawn)
30 | 236 to 238 | O=C(O)Cn1sc2ccccc2c1=O
31 | 79 to 80 | COC(=O)CCc1cc2cc(F)ccc2n1S(=O)(=O)c1ccccc1
32 | 163 to 165 | COc1cccc(-c2ccnc3ncnn23)c1
33 | 142 to 143 | Nc1nccnc1-c1cc(Cl)cc(Cl)c1Cl
34 | 201 to 203 | N#Cc1ccccc1N=Nc1ccc(O)cc1
35 | 114 to 115 | CC(C)CCCC(C)NC(=O)Oc1ccc2oc3ccccc3c2c1 (stereo not drawn)
36 | 310 to 312 | O=C1OCCC1N1C(=O)c2cccc3cccc(c23)C1=O (stereo not drawn)
37 | 178 | O=C(O)COc1ccc([C@H]2c3ccc(O)cc3OC[C@H]2c2ccccc2)cc1 (racemic)
38 | 72 to 74 | N#Cc1ccc(CCCN)cc1
39 | 193 to 194 | COC(=O)C(C#N)=CC=Cc1cc([N+](=O)[O-])ccc1Cl
40 | 202 to 205 | Cc1ccc(C(=O)Nc2ccccc2)cc1NC(=O)c1cc(Cl)cc(Cl)c1
41 | 207 to 208 | CCOC(=O)Cc1csc(NS(C)(=O)=O)n1
42 | 120 to 135 | CC(C)N1CC(Oc2ccc(-c3cccc(N)n3)c3ccccc23)C1
43 | 228 | Cn1c(=O)c(C#N)c(N2CCN(C(=O)c3ccco3)CC2)c2cc(Cl)ccc21
44 | 185 to 187 | O=C(NCc1ccccc1C(=O)O)c1cccc(/C=C/c2nc(C3CCC3)cs2)c1
45 | 154 to 156 | CNC(=O)c1cc(-c2ccc(OC)cc2)nn(Cc2ccc(Cl)cc2Cl)c1=O
46 | 242 to 246 | O=C1NC(=O)C2c3cccc4cccc(c34)C12 (stereo not drawn)

Row | melting point [°C] | Structure (SMILES)
47 | 127 | CN(C)c1nc(N(C)C)c2ncn(Cc3ccccc3F)c2n1
48 | 201 to 205 | CC(=O)C1(OC=O)CCC2C3CCC4=CC(=O)C=CC4(C)C3CCC21C (stereo not drawn)
49 | 140 to 146 | COc1ccc2nc(COc3ccc(CC(Nc4ccccc4C(=O)c4ccccc4)C(=O)O)cc3)n(C)c2c1 (stereo not drawn)
50 | 160 to 163 | COC(=O)c1ccc(C2OC23Cc2ccccc2C3=O)cc1 (stereo not drawn)
51 | 116 to 118 | CC(=O)Oc1ccc(C(C[N+](=O)[O-])SC(=S)N(C)C)cc1 (stereo not drawn)
52 | 198 to 200 | O=C(c1ccccc1)N1CCc2[nH]c3c(-c4ccccc4)cccc3c2CC1
53 | 91 to 92 | CN(C)c1ccccc1CSC1=NC(SCc2ccccc2)=NC1(C)C
54 | 145 to 147 | CS(=O)(=O)Nc1ccc(C(=O)c2ccccc2)cc1
55 | 120 to 121 | CCOP(=O)(OCC)C(C)(C)NC(=O)c1cccc(NC(=O)c2cccc([N+](=O)[O-])c2)c1
56 | 151 | CCOC(=O)Cc1cnc2c(NC(=O)c3c(Cl)cccc3Cl)cccc2c1
57 | 124 to 125 | COc1ncnc2c1ncn2[C@H](C)[C@](O)(Cn1cncn1)c1ccc(F)cc1F
58 | 224 to 226 | Cc1c2c(cc3ccc(O)cc13)-c1ccc(O)cc1CO2
59 | 145 to 146 | CCOC(=O)COc1ccccc1C(=O)Nc1ccccc1Sc1ccccc1-c1nnn[nH]1
60 | 76 to 78 | CCCCCCCCCCOc1cc(OCCCCCCCCCC)cc(C(=O)C(=O)N(CC(=O)O)CC(=O)O)c1
61 | 231 to 234 | CC(C)(NC(=O)C1=C(C(=O)Nc2cc(OC3CCCC3)c(Cl)cc2F)CCCC1)c1cccc(F)c1
62 | 128 to 130 | COc1ccc(C(CN(C)C)C2(O)C=CCCC2)cc1 (stereo not drawn)
63 | 128 to 131 | CCOCCOc1ccc(C(=O)CN(Cc2ccccc2)Cc2ccccc2)cc1C(N)=O
64 | 322 to 323 | Nc1nc(N)c2c(ccc3[nH]c(-c4ccccc4)cc32)n1
65 | 268 to 270 | C[C@H]1Cc2c(Cl)c(Cl)cc3c(=O)c(C(=O)O)cn1c23
66 | 92 | CN1CCC(c2c[nH]c3ccc(C(=O)c4ccc5ccccc5c4)cc23)CC1
67 | 164 to 165 | O=C1N(C23CC4CC(CC(C4)C2)C3)CCC1(Cc1ccncc1)Cc1ccncc1
68 | 80 to 83 | C#Cc1ccc(C(CC2CCCC2)C(=O)O)cc1 (stereo not drawn)
69 | 44.8 | CC/C=C\CCC(C#N)(C#N)Cc1ccc(Cl)cc1

Row | Structure (SMILES) | melting point [°C]
70 | OC(c1ccccc1)C1CCCN1 (stereo not drawn) | 110
71 | O=C(NCCCN1CC=C(c2ccc(Cl)cc2)CC1)C(F)(F)F | 105 to 107
72 | CCOC(=O)N1CCN(C(=O)OC2c3ccccc3C(=O)N2c2ccc(Cl)cn2)CC1 (stereo not drawn) | 160
73 | N#Cc1ncn2c1[C@@H]1CCCN1C(=O)c1c(Cl)cccc1-2 | 237 to 238
